Assay results from ChEMBL document CHEMBL2074410, “Chelerythrine stimulates GSH transport by rat Mrp2 (Abcc2) expressed in canine kidney cells” (Am J Physiol Gastrointest Liver Physiol, 2003).

Target: ATP-binding cassette sub-family C member 2 (Rattus norvegicus, UniProt Q63120)
Experiment: TP_TRANSPORTER: transcellular transport in MDCKII(+GSH)
Format: functional, cell-based
Conditions: dog, mdck-ii

Sequence of ATP-binding cassette sub-family C member 2 (Q63120 whole entry): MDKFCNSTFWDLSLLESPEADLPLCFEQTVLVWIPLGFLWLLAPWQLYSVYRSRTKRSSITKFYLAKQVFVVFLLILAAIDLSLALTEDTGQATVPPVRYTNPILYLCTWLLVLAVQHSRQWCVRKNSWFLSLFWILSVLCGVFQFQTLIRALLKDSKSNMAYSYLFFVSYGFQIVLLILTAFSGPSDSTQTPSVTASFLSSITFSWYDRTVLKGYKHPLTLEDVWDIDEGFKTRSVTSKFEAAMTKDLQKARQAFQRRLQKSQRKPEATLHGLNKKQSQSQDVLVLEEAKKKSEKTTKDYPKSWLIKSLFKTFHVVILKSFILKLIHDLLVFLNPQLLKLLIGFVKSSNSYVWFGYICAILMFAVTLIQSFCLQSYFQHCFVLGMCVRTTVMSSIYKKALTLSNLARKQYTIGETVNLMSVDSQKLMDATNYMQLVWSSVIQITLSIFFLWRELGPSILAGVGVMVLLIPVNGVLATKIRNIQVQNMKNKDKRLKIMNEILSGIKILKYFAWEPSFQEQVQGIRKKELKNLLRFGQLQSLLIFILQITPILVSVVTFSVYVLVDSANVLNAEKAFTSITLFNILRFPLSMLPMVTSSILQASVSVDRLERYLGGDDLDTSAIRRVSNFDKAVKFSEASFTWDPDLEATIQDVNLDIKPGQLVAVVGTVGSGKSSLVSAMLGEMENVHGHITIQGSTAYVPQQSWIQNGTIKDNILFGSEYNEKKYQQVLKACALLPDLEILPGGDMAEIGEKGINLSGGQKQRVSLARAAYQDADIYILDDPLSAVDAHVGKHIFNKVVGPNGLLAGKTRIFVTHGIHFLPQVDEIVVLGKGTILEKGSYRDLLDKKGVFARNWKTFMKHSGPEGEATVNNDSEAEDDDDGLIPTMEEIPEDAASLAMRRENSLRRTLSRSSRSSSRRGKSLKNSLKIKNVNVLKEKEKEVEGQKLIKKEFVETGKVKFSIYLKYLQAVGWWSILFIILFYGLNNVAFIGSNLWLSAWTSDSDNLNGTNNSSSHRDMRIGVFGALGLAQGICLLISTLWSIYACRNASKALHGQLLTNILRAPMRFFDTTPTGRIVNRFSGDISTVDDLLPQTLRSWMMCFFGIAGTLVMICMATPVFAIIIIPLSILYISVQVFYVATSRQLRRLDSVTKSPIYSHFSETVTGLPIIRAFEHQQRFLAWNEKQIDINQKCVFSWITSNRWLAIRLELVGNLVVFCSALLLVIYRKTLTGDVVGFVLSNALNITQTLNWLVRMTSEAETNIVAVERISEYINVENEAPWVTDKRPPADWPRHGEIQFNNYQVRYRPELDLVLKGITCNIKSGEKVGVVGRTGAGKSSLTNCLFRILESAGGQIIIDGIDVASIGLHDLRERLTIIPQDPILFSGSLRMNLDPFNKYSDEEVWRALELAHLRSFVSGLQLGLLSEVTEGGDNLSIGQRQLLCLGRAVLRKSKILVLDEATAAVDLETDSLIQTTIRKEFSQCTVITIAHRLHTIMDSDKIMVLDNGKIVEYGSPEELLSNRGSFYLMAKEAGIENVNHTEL

For COc1ccc2c(c[n+](C)c3c4cc5c(cc4ccc23)OCO5)c1OC [CHELERYTHRINE], the Activity was “substrate []”.
